Results on 1 compound are retold here after paper PMC3909264, “A Novel Acylaminoimidazole Derivative, WN1316, Alleviates Disease Progression via Suppression of Glial Inflammation in ALS Mouse Model” (PLoS ONE, 2014).

The test system of assay [1] is Nrf2 signaling pathway in SH-SY5Y cells. In words: Nrf2-regulated gene expression (RT-PCR, Western blot). The following applies: 10 µM, within 3 h. It is filed as cell-based, human. Here is the method: Total RNA was extracted from cells using the TRIzol reagent (Invitrogen). Isolated total RNA was purified using the SV Total RNA Isolation System (Promega) according to the manufacturer’s instruction. RT-PCR was performed with QIAGEN onestep RT-PCR kit (QIAGEN). The housekeeping peptidylprolyl isomerase A (PPIA) gene was used as an internal control. PCR primers specific to each gene are as follows: ATF3, 5′-[…]-3′, and 5′-[…]-3′ (268 bp); GCLM, 5′-[…]-3′, and 5′-[…]-3′ (367 bp); HO-1, 5′-[…]-3′, and 5′-[…]-3′ (348 bp); NQO1, 5′-[…]-3′, and 5′-[…]-3′ (298 bp); Nrf2, 5′-[…]-3′, and 5′-[…]-3′ (263 bp); p21/CDKN1A, 5′-[…]-3′, and 5′-[…]-3′ (201 bp); p62/SQSTM1, 5′-[…]-3′, and 5′-[…]-3′ (330 bp); PPIA, 5′-[…]-3′, and 5′-[…]-3′ (184 bp). Amplified products were electrophoretically resolved by a 2.0% agarose gel, stained with ethidium bromide, and photographed under ultraviolet light.
SH-SY5Y cells (3×10^5 cells) were washed twice with ice-cold PBS and incubated in 1 ml of ice-cold 10% trichloroacetic acid for 30 min. Cells were centrifuged at 22,000×g for 15 min at 4°C and lysed by pipetting in 80 µl of 9 M urea containing 2% Triton X-100 and 1% dithiothreitol. After the addition of 20 µl of 10% lithium dodecyl sulfate and 2 µl of 2 M Tris base, cell lysates were sonicated until their viscosity disappeared. […]
A general note: Immunoblotting shows a protein as a band on a membrane.

Assay [2] deals with total GSH in differentiated SH-SY5Y cells. As to the kind of experiment: Measurement of intracellular glutathione (GSH/GSSG-Glo). The format is cell-based, human. The following applies: 1–20 µM, 8 h. As to the method: Differentiated SH-SY5Y cells were treated with various concentrations of WN1316 (1–20 µM) or vehicle control (DMSO). After 8 h incubation, the cellular oxidized (GSSG) and reduced glutathione (GSH) levels were measured using the GSH/GSSG-Glo™ Assay kit (Promega) according to the manufacturer’s instructions. GSH and GSSG levels were normalized to protein concentrations.

Where a name gives a salt, the structure may show the parent alone.

Consider `Cc1cc(C)c(N(C)CC(=O)Nc2nc(-c3ccccn3)c[nH]2)c(C)c1` [WN1316, 2-[mesityl(methyl)amino]-N-[4-(pyridin-2-yl)-1H-imidazol-2-yl] acetamide trihydrochloride], for which the “mRNA of Nrf2-regulated genes (Nrf2, ATF3, HO-1, GCLM, NQO1, p21, p62)” value in assay [1] is listed as “increased”. In addition, the “total GSH level” value in assay [2] is recorded as “upregulation of total GSH level”.
